Results taken from patent US12280040B2, “Compositions and methods of a dihydroisoxazole compound that reduces ectoparasite infestations on fish” (EVAH Atlantic Inc., priority 2023, dated 2025).

Assays:
Lepeophtheirus salmonis = experiment: Duration of efficacy: medicated feed, then sea lice infestation of Atlantic salmon at 8 or 17 DPT (Example 2); format: in vivo; details: for percent efficacy for total sea lice, across counts: cohort infested at 8 DPT
Description: A randomized, blinded, parallel-group, negative-controlled study was conducted in which, the active ingredient was administered to Atlantic salmon at three dose rate (0 mg/kg/day, 0.025 mg/kg/day, and 0.060 mg/kg/day administered in medicated feed for 7 consecutive days. Following the treatment, the fish were intentionally infested with sea lice either 8 or 17 DPT, all within a controlled laboratory environment with seawater. The evaluation of efficacy for each cohort occurred at three specific timepoints post-infestation by comparing lice counts between the groups that received treatment and the untreated control groups.
Healthy Atlantic salmon post-smolts (n=1080) were selected for enrollment and distributed sequentially across eighteen (18) study tanks. Fish were weighed individually during the allocation of fish to tanks on study day (SD) −55&−56. Fish were weighed again on SD −19 to estimate the average weight of all fish and used to determine the feeding amount during the treatment period (SD 0−+6). The mean weight of fish prior to treatment was 716.1±152.5 g. Fish in the cohort infested 8 DPT were additionally weighed on SD +8, +14, +27, +35, +41 and +48. Fish in the cohort infested 17 DPT were additionally weighed on SD +8, +23, +36, +44, +50, and +57. For both cohorts SD 0 served as the first day of treatment.
Atlantic salmon post-smolts at each infestation time (8 or 17 DPT) were infested once with about 100 copepodids (Lepeophtheirus salmonis) per fish. During the study the water temperature varied between 9 and 13° C., and the water oxygen saturation was above 80%.
Three treatment groups were randomly assigned to eighteen study tanks by blocking the paired tank rows for the 8 and 17 DPT exposure. Study personnel were blinded as to the identity of the treatments for each tank.
Sea lice were counted three times during the study. […] The counts were strategically scheduled to ensure the presence of life stages, including chalimus, pre-adult, and adult stages, in at least one of the three counts within the negative control treatment. At all timepoints 10 fish were euthanized and lice counted.
Medicated feed was prepared by dry coating commercially available fish feed pellets with a premix containing the active ingredient to reach a content of about 4.2 and 10.0 mg/kg. The fish pellets were then coated with feed grade herring fish oil at an inclusion rate of about 0.75% w/w (7.5 g/kg feed) The consumption rate of the medicated feed was set to 0.6% body weight.
For the cohort infested at 8 DPT and the cohort infested at 17 DPT, treatment efficacy was computed for total number of sea lice/fish and total number of mobile life stages, i.e., preadult & adult sea lice/fish for each sea lice counting occasion (Count I, II & III). For the total number of attached/fish, treatment efficacy was computed at Count I only. Percent efficacy was computed using Abbott's formula for each treatment group compared to control as follows: percent efficacy=100*(MC−MT)/MC, where MC and MT are the arithmetic means of sea lice counts in the untreated control and S-roxapin-treated groups, respectively.
Treatments were considered efficacious when the percent efficacy was ≥90% for treated groups compared to untreated control groups. The mean sea lice abundance was reported for different parasite life stages (attached, mobile, and total (attached and mobile together)) and computed as the number of lice on salmon divided by the number of sampled fish per tank. The attached category included chalimus I & II stages. The mobile category included pre-adult and adult life stages of both males and females. The numbers of mobile, attached, and total lice were considered in this study.

sea lice = experiment: First set of experiments: medicated feed over 7 consecutive days to salmon, sea lice infestation; format: in vivo; details: all dose rates 0.050, 0.125, 0.250 mg/kg/d in medicated feed over 7 consecutive days to salmon
Description: The inventors conducted a first set of experiments with administration in medicated feed over 7 consecutive days to salmon of 0.050, 0.125, 0.250 mg/kg/d to determine a non-therapeutic dosage for control or treatment of sea lice infestation. As these lower dosages represented a large reduction in concentration to that described in U.S. Pat. No. 9,920,037 (1.0 mg/kg/d) and, as well, represented concentrations well below the dosage for related IOB products for dogs, cats and poultry approved between 2014 and 2021 by such regulatory authorities as the U.S. Food and Drug Administration, Health Canada, and the European Medicines Agency, it was reasonable to expect to find a non-therapeutic dosage at the lower dosages tested.

[1] = 0.025 mg/kg/day in feed 7 d, infested 8 DPT, Count I (21DPI)
[2] = 0.025 mg/kg/day in feed 7 d, infested 8 DPT, Count III (34 DPI)
[3] = 0.025 mg/kg/day in feed 7 d, infested 17 DPT, Count I (21DPI)
[4] = 0.025 mg/kg/day in feed 7 d, infested 17 DPT, Count III (34 DPI)
[5] = 0.060 mg/kg/day in feed 7 d, infested 8 DPT, Count I (21DPI)
[6] = 0.060 mg/kg/day in feed 7 d, infested 8 DPT, Count III (34 DPI)
[7] = 0.060 mg/kg/day in feed 7 d, infested 17 DPT, Count I (21DPI)
[8] = 0.060 mg/kg/day in feed 7 d, infested 17 DPT, Count III (34 DPI)

## C#CCNC(=O)CNC(=O)c1sc(C2=NO[C@@](c3cc(Cl)c(Cl)c(Cl)c3)(C(F)(F)F)C2)cc1C [S-roxapin, (S)-3-methyl-N-(2-oxo-2-(prop-2-yn-1-ylamino)ethyl)-5-(5-(3,4,5-trichlorophenyl)-5-(trifluoromethyl)-4,5-dihydroisoxazol-3-yl)thiophene-2-carboxamide]
Lepeophtheirus salmonis; [1]
  Number of Attached Lice/Fish % Efficacy: 92.5%
  Number of Attached Lice/Fish Mean ± SD: 1.6 ± 2.0 lice/fish
  Number of Mobile Lice/Fish % Efficacy: 87.2%
  Number of Mobile Lice/Fish Mean ± SD: 1.0 ± 1.3 lice/fish
  Total Number of Lice/Fish % Efficacy: 91.1%
  Total Number of Lice/Fish Mean ± SD: 2.6 ± 2.9 lice/fish
Lepeophtheirus salmonis; [2]
  Number of Attached Lice/Fish Mean ± SD: 0.0 ± 0.0 lice/fish
  Number of Mobile Lice/Fish % Efficacy: 91.8%
  Number of Mobile Lice/Fish Mean ± SD: 2.5 ± 2.8 lice/fish
  Total Number of Lice/Fish % Efficacy: 91.8%
  Total Number of Lice/Fish Mean ± SD: 2.5 ± 2.8 lice/fish
Lepeophtheirus salmonis; [3]
  Number of Attached Lice/Fish % Efficacy: 21.2%
  Number of Attached Lice/Fish Mean ± SD: 2.7 ± 1.9 lice/fish
  Number of Mobile Lice/Fish % Efficacy: −10.1%
  Number of Mobile Lice/Fish Mean ± SD: 24.4 ± 8.8 lice/fish
  Total Number of Lice/Fish % Efficacy: −5.9%
  Total Number of Lice/Fish Mean ± SD: 27.1 ± 9.0 lice/fish
Lepeophtheirus salmonis; [4]
  Number of Attached Lice/Fish Mean ± SD: 0.0 ± 0.0 lice/fish
  Number of Mobile Lice/Fish % Efficacy: −16.2%
  Number of Mobile Lice/Fish Mean ± SD: 32.1 ± 12.1 lice/fish
  Total Number of Lice/Fish % Efficacy: −16.0%
  Total Number of Lice/Fish Mean ± SD: 32.1 ± 12.1 lice/fish
Lepeophtheirus salmonis; 0.025 mg/kg/day
  percent efficacy for total sea lice, across counts: above 86.8%
Lepeophtheirus salmonis; 0.025 mg/kg/day, cohort infested at 17 DPT
  efficacy for mobile lice: no efficacy
Lepeophtheirus salmonis; 0.025 mg/kg/day, cohort infested at 17 DPT (printed: in DOE14)
  efficacy for total sea lice: No efficacy
Lepeophtheirus salmonis; [5]
  Number of Attached Lice/Fish % Efficacy: 99.8%
  Number of Attached Lice/Fish Mean ± SD: 0.0 ± 0.2 lice/fish
  Number of Mobile Lice/Fish % Efficacy: 99.6%
  Number of Mobile Lice/Fish Mean ± SD: 0.0 ± 0.2 lice/fish
  Total Number of Lice/Fish % Efficacy: 99.8%
  Total Number of Lice/Fish Mean ± SD: 0.1 ± 0.3 lice/fish
Lepeophtheirus salmonis; [6]
  Number of Attached Lice/Fish Mean ± SD: 0.0 ± 0.0 lice/fish
  Number of Mobile Lice/Fish % Efficacy: 100%
  Number of Mobile Lice/Fish Mean ± SD: 0.0 ± 0.0 lice/fish
  Total Number of Lice/Fish % Efficacy: 100%
  Total Number of Lice/Fish Mean ± SD: 0.0 ± 0.0 lice/fish
Lepeophtheirus salmonis; [7]
  Number of Attached Lice/Fish % Efficacy: 46.2%
  Number of Attached Lice/Fish Mean ± SD: 1.9 ± 1.6 lice/fish
  Number of Mobile Lice/Fish % Efficacy: 18.5%
  Number of Mobile Lice/Fish Mean ± SD: 18.0 ± 6.1 lice/fish
  Total Number of Lice/Fish % Efficacy: 22.3%
  Total Number of Lice/Fish Mean ± SD: 19.9 ± 6.1 lice/fish
Lepeophtheirus salmonis; [8]
  Number of Attached Lice/Fish Mean ± SD: 0.0 ± 0.0 lice/fish
  Number of Mobile Lice/Fish % Efficacy: 23.0%
  Number of Mobile Lice/Fish Mean ± SD: 21.3 ± 9.0 lice/fish
  Total Number of Lice/Fish % Efficacy: 23.1%
  Total Number of Lice/Fish Mean ± SD: 21.3 ± 9.0 lice/fish
Lepeophtheirus salmonis; 0.060 mg/kg/day
  percent efficacy for total sea lice, across counts: above 99.2%
Sea lice
  effectiveness in reducing sea lice burdens: ~100%
